Reference: ChEMBL document CHEMBL1201861, “Genomics of Drug Sensitity in Cancer screening data, Wellcome Trust Sanger Institute”

Key:
Assay in all cases: cells
ALL-PO = format: functional, cell-based; details: Homo sapiens;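 note: growth inhibition of ALL-PO cells, read out by a cell viability assay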
Description: SANGER: Inhibition of human ALL-PO cell growth in a cell viability assay.

PANC-08-13 = format: functional, cell-based, Homo sapiens; details: Homo sapiens, PANC-08-13;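 note: cell growth inhibition, measured with a cell viability assay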
Description: SANGER: Inhibition of human PANC-08-13 cell growth in a cell viability assay.

CAL-72 = format: functional, cell-based, Homo sapiens; details: Homo sapiens, CAL-72;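 note: cell viability assay measuring inhibition of proliferation in the CAL-72 cell line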
Description: SANGER: Inhibition of human CAL-72 cell growth in a cell viability assay.

SBC-5 = format: functional, cell-based, Homo sapiens; details: Homo sapiens, SBC-5;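 note: cell viability assay read-out, IC50 is the concentration that inhibits growth of the cells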
Description: SANGER: Inhibition of human SBC-5 cell growth in a cell viability assay.

HCC1419 = format: functional, cell-based, Homo sapiens; details: Homo sapiens, HCC1419;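 note: growth inhibition of human HCC1419 cells, read out as cell viability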
Description: SANGER: Inhibition of human HCC1419 cell growth in a cell viability assay.

Hs-578T = format: functional, cell-based, Homo sapiens; details: Homo sapiens, Hs-578T
Description: SANGER: Inhibition of human Hs-578-T cell growth in a cell viability assay.

TE-9 = format: functional, cell-based, Homo sapiens; details: Homo sapiens, TE-9;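 note: cell growth inhibition, measured with a cell viability readout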
Description: SANGER: Inhibition of human TE-9 cell growth in a cell viability assay.

NCI-H1437 = format: functional, cell-based, Homo sapiens; details: Homo sapiens, NCI-H1437;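 note: growth inhibition of human NCI-H1437 cells, read out by a cell viability assay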
Description: SANGER: Inhibition of human NCI-H1437 cell growth in a cell viability assay.

HuP-T4 = format: functional, cell-based, Homo sapiens; details: Homo sapiens, HuP-T4;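 note: cell viability assay measuring how much HuP-T4 cell growth is inhibited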
Description: SANGER: Inhibition of human HuP-T4 cell growth in a cell viability assay.

LU-134-A = format: functional, cell-based; details: Homo sapiens
Description: SANGER: Inhibition of human LU-134-A cell growth in a cell viability assay.

SK-PN-DW = format: functional, cell-based; details: Homo sapiens;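 note: growth inhibition measured with a viability assay on these cells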
Description: SANGER: Inhibition of human SK-PN-DW cell growth in a cell viability assay.

NUGC-3 = format: functional, cell-based, Homo sapiens; details: Homo sapiens, NUGC-3;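 note: growth inhibition of human NUGC-3 cells, read out with a cell viability assay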
Description: SANGER: Inhibition of human NUGC-3 cell growth in a cell viability assay.

NCI-H1299 = format: functional, cell-based, Homo sapiens; details: Homo sapiens, NCI-H1299;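 note: growth inhibition of human NCI-H1299 cells, read out by a cell viability assay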
Description: SANGER: Inhibition of human NCI-H1299 cell growth in a cell viability assay.

BE-13 = format: functional, cell-based; details: Homo sapiens;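 note: growth inhibition of human BE-13 cells, measured with a cell viability assay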
Description: SANGER: Inhibition of human BE-13 cell growth in a cell viability assay.

U-266 = format: functional, cell-based; details: Homo sapiens
Description: SANGER: Inhibition of human U-266 cell growth in a cell viability assay.

CW-2 = format: functional, cell-based, Homo sapiens; details: Homo sapiens, CW-2;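 note: growth inhibition of CW-2 cells, read out by a cell viability assay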
Description: SANGER: Inhibition of human CW-2 cell growth in a cell viability assay.

UO-31 = format: functional, cell-based; details: Homo sapiens;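 note: cell viability assay measuring inhibition of cell growth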
Description: SANGER: Inhibition of human U031 cell growth in a cell viability assay.

CCRF-CEM = format: functional, cell-based; details: Homo sapiens;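 note: inhibition of CCRF-CEM cell growth, measured by a cell viability assay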
Description: SANGER: Inhibition of human CCRF-CEM cell growth in a cell viability assay.

SW 954 = format: functional, cell-based, Homo sapiens; details: Homo sapiens, SW 954;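 note: growth inhibition of SW954 human cancer cells, read out as cell viability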
Description: SANGER: Inhibition of human SW954 cell growth in a cell viability assay.

NB10 = format: functional, cell-based, Homo sapiens; details: Homo sapiens, NB10;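 note: growth inhibition of NB10 cells, read out by a cell viability assay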
Description: SANGER: Inhibition of human NB10 cell growth in a cell viability assay.

RS4-11 = format: functional, cell-based; details: Homo sapiens;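 note: growth inhibition of RS4-11 cells, read out by a cell viability assay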
Description: SANGER: Inhibition of human RS4-11 cell growth in a cell viability assay.

RD = format: functional, cell-based, Homo sapiens; details: Homo sapiens, RD
Description: SANGER: Inhibition of human RD cell growth in a cell viability assay.

NB6 = format: functional, cell-based, Homo sapiens; details: Homo sapiens, NB6;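 note: growth inhibition of NB6 cells, read out by a cell viability assay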
Description: SANGER: Inhibition of human NB6 cell growth in a cell viability assay.

ETK-1 = format: functional, cell-based, Homo sapiens; details: Homo sapiens, ETK-1;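 note: growth inhibition of human ETK-1 cells, read out with a cell viability assay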
Description: SANGER: Inhibition of human ETK-1 cell growth in a cell viability assay.

CGTH-W-1 = format: functional, cell-based, Homo sapiens; details: Homo sapiens, CGTH-W-1;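 note: growth inhibition of human CGTH-W-1 cells measured by cell viability assay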
Description: SANGER: Inhibition of human CGTH-W-1 cell growth in a cell viability assay.

HCC38 = format: functional, cell-based, Homo sapiens; details: Homo sapiens, HCC38;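 note: cell viability assay on the human HCC38 cell line, with IC50 marking the concentration that inhibits cell growth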
Description: SANGER: Inhibition of human HCC38 cell growth in a cell viability assay.

A-427 = format: functional, cell-based, Homo sapiens; details: Homo sapiens, A-427;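 note: growth inhibition of human A-427 cells, read out by a cell viability assay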
Description: SANGER: Inhibition of human A427 cell growth in a cell viability assay.

SK-MEL-28 = format: functional, cell-based; details: Homo sapiens;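 note: growth inhibition of human SK-MEL-28 cells, read out with a cell viability assay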
Description: SANGER: Inhibition of human SK-MEL-28 cell growth in a cell viability assay.

NCI-H2347 = format: functional, cell-based, Homo sapiens; details: Homo sapiens, NCI-H2347;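 note: growth inhibition of the cell line, read out with a cell viability assay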
Description: SANGER: Inhibition of human NCI-H2347 cell growth in a cell viability assay.

COR-L105 = format: functional, cell-based, Homo sapiens; details: Homo sapiens, COR-L105;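 note: cell growth inhibition determined with a viability assay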
Description: SANGER: Inhibition of human COR-L105 cell growth in a cell viability assay.

NCI-H727 = format: functional, cell-based, Homo sapiens; details: Homo sapiens, NCI-H727;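 note: growth inhibition of human NCI-H727 cells, read out with a cell viability assay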
Description: SANGER: Inhibition of human NCI-H727 cell growth in a cell viability assay.

PC-3 = format: functional, cell-based, Homo sapiens; details: Homo sapiens, PC-3;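 note: cell viability assay measuring growth inhibition of PC-3 cells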
Description: SANGER: Inhibition of human PC-3 cell growth in a cell viability assay.

MCF7 = format: functional, cell-based, Homo sapiens; details: Homo sapiens, MCF7;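 note: growth inhibition of human MCF7 cells, read out with a cell viability assay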
Description: SANGER: Inhibition of human MCF7 cell growth in a cell viability assay.

no-11 = format: functional, cell-based, Homo sapiens; details: Homo sapiens;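 note: growth inhibition of human NO-11 cells, read out with a cell viability assay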
Description: SANGER: Inhibition of human no-11 cell growth in a cell viability assay.

A204 = format: functional, cell-based, Homo sapiens; details: Homo sapiens, A204;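 note: growth inhibition of human A204 cells, read out with a cell viability assay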
Description: SANGER: Inhibition of human A204 cell growth in a cell viability assay.

NCI-H1581 = format: functional, cell-based, Homo sapiens; details: Homo sapiens, NCI-H1581;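 note: cell growth inhibition read out by a viability assay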
Description: SANGER: Inhibition of human NCI-H1581 cell growth in a cell viability assay.

NB13 = format: functional, cell-based, Homo sapiens; details: Homo sapiens, NB13;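 note: cell viability readout measuring growth inhibition of human NB13 cells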
Description: SANGER: Inhibition of human NB13 cell growth in a cell viability assay.

NOS-1 = format: functional, cell-based, Homo sapiens; details: Homo sapiens, NOS-1;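 note: growth inhibition of the human NOS-1 cell line, read out with a cell viability assay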
Description: SANGER: Inhibition of human NOS-1 cell growth in a cell viability assay.

M14 = format: functional, cell-based, Homo sapiens; details: Homo sapiens, M14;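 note: growth inhibition of M14 cells, read out with a cell viability assay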
Description: SANGER: Inhibition of human M14 cell growth in a cell viability assay.

NB5 = format: functional, cell-based, Homo sapiens; details: Homo sapiens, NB5;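 note: growth inhibition of NB5 cells, read out as cell viability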
Description: SANGER: Inhibition of human NB5 cell growth in a cell viability assay.

DMS-114 = format: functional, cell-based, Homo sapiens; details: Homo sapiens, DMS-114
UACC-62 = format: functional, cell-based, Homo sapiens; details: Homo sapiens, UACC-62;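 note: growth inhibition of human UACC-62 cells, read out by a cell viability assay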
Description: SANGER: Inhibition of human UACC-62 cell growth in a cell viability assay.

SW1710 = format: functional, cell-based, Homo sapiens; details: Homo sapiens, SW1710;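 note: growth inhibition of SW1710 cells, determined with a cell viability assay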
Description: SANGER: Inhibition of human SW1710 cell growth in a cell viability assay.

RCC10RGB = format: functional, cell-based, Homo sapiens; details: Homo sapiens, RCC10RGB;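 note: growth inhibition of human RCC10RGB cells, read out by a cell viability assay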
Description: SANGER: Inhibition of human RCC10RGB cell growth in a cell viability assay.

CTB-1 = format: functional, cell-based; details: Homo sapiens
Description: SANGER: Inhibition of human CTB-1 cell growth in a cell viability assay.

HCC1954 = format: functional, cell-based, Homo sapiens; details: Homo sapiens, HCC1954;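 note: growth inhibition of human HCC1954 cells, read out with a cell viability assay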
Description: SANGER: Inhibition of human HCC1954 cell growth in a cell viability assay.

CAL-120 = format: functional, cell-based, Homo sapiens; details: Homo sapiens, CAL-120;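 note: cell growth inhibition, read out as cell viability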
Description: SANGER: Inhibition of human CAL-120 cell growth in a cell viability assay.

NCI-H661 = format: functional, cell-based, Homo sapiens; details: Homo sapiens, NCI-H661;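 note: cell viability assay read-out, IC50 being the concentration that inhibits growth of the cells by half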
Description: SANGER: Inhibition of human NCI-H661 cell growth in a cell viability assay.

EW-18 = format: functional, cell-based; details: Homo sapiens;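 note: growth inhibition of EW-18 cells, read out by a cell viability assay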
Description: SANGER: Inhibition of human EW-18 cell growth in a cell viability assay.

MS-1 = format: functional, cell-based; details: Homo sapiens
Description: SANGER: Inhibition of human MS-1 cell growth in a cell viability assay.

FaDu = format: functional, cell-based, Homo sapiens; details: Homo sapiens, FaDu;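 note: cell viability readout of growth inhibition in FaDu cells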
Description: SANGER: Inhibition of human FADU cell growth in a cell viability assay.

U-251 = format: functional, cell-based, Homo sapiens; details: Homo sapiens, U-251;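 note: growth inhibition of human U-251 cells, read out through a cell viability assay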
Description: SANGER: Inhibition of human U251 cell growth in a cell viability assay.

With `CCOc1nc(NC(=O)Cc2cc(OC)ccc2OC)cc(N)c1C#N` as the molecule, how does the IC50 (ALL-PO) read?
Its IC50 is greater than 10 µM.

And the IC50 (PANC-08-13)?
The IC50 was greater than 10 µM.

What about the IC50 (CAL-72) of the same molecule?
The IC50 was greater than 10 µM.

What about the IC50 (SBC-5) of the same molecule?
Its IC50 is greater than 10 µM.

What about the IC50 (HCC1419) of the same molecule?
The IC50 was greater than 10 µM.

What about the IC50 (Hs-578T) of the same molecule?
Its IC50 is greater than 10 µM.

And the IC50 (TE-9)?
The IC50 was greater than 10 µM.

And the IC50 (NCI-H1437)?
The IC50 was greater than 10 µM.

And the IC50 (HuP-T4)?
The IC50 was greater than 10 µM.

What about the IC50 (LU-134-A) of the same molecule?
Its IC50 is greater than 10 µM.

And the IC50 (SK-PN-DW)?
The IC50 was greater than 10 µM.

What about the IC50 (NUGC-3) of the same molecule?
Its IC50 is greater than 10 µM.

What about the IC50 (NCI-H1299) of the same molecule?
The IC50 was greater than 10 µM.

And the IC50 (BE-13)?
The IC50 was greater than 10 µM.

And the IC50 (U-266)?
Its IC50 is greater than 10 µM.

What about the IC50 (CW-2) of the same molecule?
The IC50 was greater than 10 µM.

What about the IC50 (UO-31) of the same molecule?
The IC50 was greater than 10 µM.

What about the IC50 (CCRF-CEM) of the same molecule?
Its IC50 is greater than 10 µM.

What about the IC50 (SW 954) of the same molecule?
The IC50 was greater than 10 µM.

And the IC50 (NB10)?
Its IC50 is greater than 10 µM.

And the IC50 (RS4-11)?
The IC50 was greater than 10 µM.

And the IC50 (RD)?
The IC50 was greater than 10 µM.

What about the IC50 (NB6) of the same molecule?
The IC50 was greater than 10 µM.

What about the IC50 (ETK-1) of the same molecule?
The IC50 was greater than 10 µM.

What about the IC50 (CGTH-W-1) of the same molecule?
Its IC50 is greater than 10 µM.

What about the IC50 (HCC38) of the same molecule?
Its IC50 is greater than 10 µM.

And the IC50 (A-427)?
The IC50 was greater than 10 µM.

What about the IC50 (SK-MEL-28) of the same molecule?
The IC50 was greater than 10 µM.

And the IC50 (NCI-H2347)?
Its IC50 is greater than 10 µM.

What about the IC50 (COR-L105) of the same molecule?
The IC50 was greater than 10 µM.

What about the IC50 (NCI-H727) of the same molecule?
Its IC50 is greater than 10 µM.

What about the IC50 (PC-3) of the same molecule?
Its IC50 is greater than 10 µM.

And the IC50 (MCF7)?
The IC50 was greater than 10 µM.

And the IC50 (no-11)?
Its IC50 is greater than 10 µM.

What about the IC50 (A204) of the same molecule?
Its IC50 is greater than 10 µM.

And the IC50 (NCI-H1581)?
The IC50 was greater than 10 µM.

What about the IC50 (NB13) of the same molecule?
Its IC50 is greater than 10 µM.

And the IC50 (NOS-1)?
The IC50 was greater than 10 µM.

And the IC50 (M14)?
The IC50 was greater than 10 µM.

What about the IC50 (NB5) of the same molecule?
Its IC50 is greater than 10 µM.

And the IC50 (DMS-114)?
The IC50 was greater than 10 µM.

What about the IC50 (UACC-62) of the same molecule?
Its IC50 is greater than 10 µM.

What about the IC50 (SW1710) of the same molecule?
The IC50 was greater than 10 µM.

And the IC50 (RCC10RGB)?
The IC50 was greater than 10 µM.

What about the IC50 (CTB-1) of the same molecule?
Its IC50 is greater than 10 µM.

What about the IC50 (HCC1954) of the same molecule?
Its IC50 is greater than 10 µM.

And the IC50 (CAL-120)?
Its IC50 is greater than 10 µM.

And the IC50 (NCI-H661)?
Its IC50 is greater than 10 µM.

And the IC50 (EW-18)?
The IC50 was greater than 10 µM.

What about the IC50 (MS-1) of the same molecule?
The IC50 was greater than 10 µM.

What about the IC50 (FaDu) of the same molecule?
Its IC50 is greater than 10 µM.

And the IC50 (U-251)?
Its IC50 is greater than 10 µM.

Which IC50 (ALL-PO) does the source give for `O=C1N=C(NCc2cccs2)S/C1=C\c1ccc2ncccc2c1` here?
Its IC50 is 1.91 µM.

What about the IC50 (PANC-08-13) of the same molecule?
Its IC50 is greater than 5 µM.

And the IC50 (CAL-72)?
The IC50 was greater than 5 µM.

And the IC50 (SBC-5)?
The IC50 was greater than 5 µM.

What about the IC50 (HCC1419) of the same molecule?
The IC50 was greater than 5 µM.

What about the IC50 (Hs-578T) of the same molecule?
The IC50 was 2.28 µM.

And the IC50 (TE-9)?
The IC50 was greater than 5 µM.

And the IC50 (NCI-H1437)?
Its IC50 is greater than 5 µM.

What about the IC50 (HuP-T4) of the same molecule?
The IC50 was greater than 5 µM.

And the IC50 (LU-134-A)?
Its IC50 is greater than 5 µM.

And the IC50 (SK-PN-DW)?
The IC50 was greater than 5 µM.

And the IC50 (NUGC-3)?
Its IC50 is greater than 5 µM.

And the IC50 (NCI-H1299)?
Its IC50 is greater than 5 µM.

What about the IC50 (BE-13) of the same molecule?
The IC50 was greater than 5 µM.

And the IC50 (U-266)?
Its IC50 is greater than 5 µM.

What about the IC50 (CW-2) of the same molecule?
Its IC50 is greater than 5 µM.

What about the IC50 (UO-31) of the same molecule?
Its IC50 is greater than 5 µM.

What about the IC50 (CCRF-CEM) of the same molecule?
Its IC50 is greater than 5 µM.

And the IC50 (SW 954)?
The IC50 was greater than 5 µM.

What about the IC50 (NB10) of the same molecule?
Its IC50 is greater than 5 µM.

What about the IC50 (RS4-11) of the same molecule?
The IC50 was greater than 5 µM.

What about the IC50 (RD) of the same molecule?
The IC50 was greater than 5 µM.

What about the IC50 (NB6) of the same molecule?
The IC50 was greater than 5 µM.

And the IC50 (ETK-1)?
Its IC50 is greater than 5 µM.

And the IC50 (CGTH-W-1)?
The IC50 was greater than 5 µM.

And the IC50 (HCC38)?
The IC50 was greater than 5 µM.

And the IC50 (A-427)?
The IC50 was greater than 5 µM.

And the IC50 (SK-MEL-28)?
Its IC50 is greater than 5 µM.

And the IC50 (NCI-H2347)?
Its IC50 is greater than 5 µM.

And the IC50 (COR-L105)?
The IC50 was greater than 5 µM.

What about the IC50 (NCI-H727) of the same molecule?
The IC50 was greater than 5 µM.

And the IC50 (PC-3)?
The IC50 was greater than 5 µM.

What about the IC50 (MCF7) of the same molecule?
The IC50 was greater than 5 µM.

What about the IC50 (no-11) of the same molecule?
The IC50 was greater than 5 µM.

What about the IC50 (A204) of the same molecule?
Its IC50 is greater than 5 µM.

What about the IC50 (NCI-H1581) of the same molecule?
The IC50 was greater than 5 µM.

What about the IC50 (NB13) of the same molecule?
The IC50 was greater than 5 µM.

What about the IC50 (NOS-1) of the same molecule?
The IC50 was greater than 5 µM.

What about the IC50 (M14) of the same molecule?
Its IC50 is greater than 5 µM.

What about the IC50 (NB5) of the same molecule?
Its IC50 is greater than 5 µM.

What about the IC50 (DMS-114) of the same molecule?
The IC50 was greater than 5 µM.

And the IC50 (UACC-62)?
Its IC50 is greater than 5 µM.

And the IC50 (SW1710)?
Its IC50 is 1.61 µM.

What about the IC50 (RCC10RGB) of the same molecule?
Its IC50 is greater than 5 µM.

What about the IC50 (CTB-1) of the same molecule?
Its IC50 is greater than 5 µM.

What about the IC50 (HCC1954) of the same molecule?
The IC50 was greater than 5 µM.

What about the IC50 (CAL-120) of the same molecule?
Its IC50 is greater than 5 µM.

What about the IC50 (NCI-H661) of the same molecule?
Its IC50 is greater than 5 µM.

What about the IC50 (EW-18) of the same molecule?
Its IC50 is greater than 5 µM.

And the IC50 (MS-1)?
The IC50 was greater than 5 µM.

And the IC50 (FaDu)?
The IC50 was greater than 5 µM.

And the IC50 (U-251)?
The IC50 was 1.64 µM.
